# Reference: article PMC9165293, “Characterization in nonhuman primates of (R)-[^18F]OF-Me-NB1 and (S)-[^18F]OF-Me-NB1 for imaging the GluN2B subunits of the NMDA receptor” (European Journal of Nuclear Medicine and Molecular Imaging, 2022)
# Several values for one entry are separate records, joined by “and”; a condition that tells them apart may be missing. Equal entries are not always repeated. Where two headings read alike, the source gives them in different places.
# How the values were obtained:
# [1] = Measurement of lipophilicity (log D7.4), 1-octanol/PBS; format: physicochemical; conditions: 1-octanol/PBS pH 7.4; n = 4
# Procedure: Lipophilicity (log D7.4) was measured using the method previously reported. Log D7.4 was calculated as the ratio of decay-corrected radioactivity concentrations in 1-octanol and phosphate-buffered saline (PBS, pH = 7.4, Dulbecco). Six consecutive equilibrations were performed until a constant value of log D7.4 was obtained.
# [2] = Plasma metabolite analysis (parent fraction over time); format: in vivo, rhesus monkeys; conditions: for Parent fraction of total plasma activity: baseline scans; for Effect of pretreatment on parent fraction of (R)-[^18F]OF-Me-NB1 in plasma: blocking scans
# Procedure: Measurements of plasma activity and parent fraction over time were performed as previously described. Arterial or venous blood samples were collected at preselected time points and assayed for radioactivity in whole blood and plasma with cross-calibrated gamma counters (Wizard 1480/2480, Perkin Elmer, Waltham, MA, USA). The volume of the whole blood or plasma (50–200 µL) was determined by the weight of the sample. Parent fraction was calculated as the ratio of the total radioactivity in fractions containing the parent compound to the total amount of radioactivity collected and fitted with an inverted gamma function and corrected for filtration efficiency. The arterial plasma input function (AIF) was then calculated as the product of the total counts in the plasma and the interpolated parent fraction at each time point.
# [3] = Plasma free fraction (fP) by ultrafiltration; format: in vitro ADME, rhesus monkeys; conditions: monkey plasma
# Procedure: The ultrafiltration method was used for measuring the unbound portion (free fraction) of [^18F]OF-Me-NB1 in plasma as previously described. The fP was determined as the ratio of the radioactivity concentration in the filtrate to the total activity in plasma. Measurements of fP were performed in triplicate for each scan.
# [4] = target: T1, GluN2B subunits of the NMDA receptor (Macaca mulatta, UniProt F6T8S6); test: PET imaging in rhesus monkeys, baseline scans with kinetic modeling; format: in vivo, rhesus monkeys (Macaca mulatta); conditions: for BPND, cerebellum / BPND, cingulate cortex / BPND, frontal cortex / BPND, hippocampus / BPND, semiovale / BPND, thalamus: from baseline VT and VND of Co101,244 occupancy plot; for Peak uptake SUV across brain regions / Time to peak brain uptake after tracer injection: baseline scan, monkey brain; for VT, cerebellum / VT, cingulate cortex / VT, frontal cortex / VT, hippocampus / VT, semiovale / VT, thalamus: baseline, MA1
# T1 construct: consistent with the pattern of GluN2B expression in the monkey brain; from tissue; host or cells: brain of living rhesus monkeys (in vivo PET)
# T1 sequence (F6T8S6 29-1484): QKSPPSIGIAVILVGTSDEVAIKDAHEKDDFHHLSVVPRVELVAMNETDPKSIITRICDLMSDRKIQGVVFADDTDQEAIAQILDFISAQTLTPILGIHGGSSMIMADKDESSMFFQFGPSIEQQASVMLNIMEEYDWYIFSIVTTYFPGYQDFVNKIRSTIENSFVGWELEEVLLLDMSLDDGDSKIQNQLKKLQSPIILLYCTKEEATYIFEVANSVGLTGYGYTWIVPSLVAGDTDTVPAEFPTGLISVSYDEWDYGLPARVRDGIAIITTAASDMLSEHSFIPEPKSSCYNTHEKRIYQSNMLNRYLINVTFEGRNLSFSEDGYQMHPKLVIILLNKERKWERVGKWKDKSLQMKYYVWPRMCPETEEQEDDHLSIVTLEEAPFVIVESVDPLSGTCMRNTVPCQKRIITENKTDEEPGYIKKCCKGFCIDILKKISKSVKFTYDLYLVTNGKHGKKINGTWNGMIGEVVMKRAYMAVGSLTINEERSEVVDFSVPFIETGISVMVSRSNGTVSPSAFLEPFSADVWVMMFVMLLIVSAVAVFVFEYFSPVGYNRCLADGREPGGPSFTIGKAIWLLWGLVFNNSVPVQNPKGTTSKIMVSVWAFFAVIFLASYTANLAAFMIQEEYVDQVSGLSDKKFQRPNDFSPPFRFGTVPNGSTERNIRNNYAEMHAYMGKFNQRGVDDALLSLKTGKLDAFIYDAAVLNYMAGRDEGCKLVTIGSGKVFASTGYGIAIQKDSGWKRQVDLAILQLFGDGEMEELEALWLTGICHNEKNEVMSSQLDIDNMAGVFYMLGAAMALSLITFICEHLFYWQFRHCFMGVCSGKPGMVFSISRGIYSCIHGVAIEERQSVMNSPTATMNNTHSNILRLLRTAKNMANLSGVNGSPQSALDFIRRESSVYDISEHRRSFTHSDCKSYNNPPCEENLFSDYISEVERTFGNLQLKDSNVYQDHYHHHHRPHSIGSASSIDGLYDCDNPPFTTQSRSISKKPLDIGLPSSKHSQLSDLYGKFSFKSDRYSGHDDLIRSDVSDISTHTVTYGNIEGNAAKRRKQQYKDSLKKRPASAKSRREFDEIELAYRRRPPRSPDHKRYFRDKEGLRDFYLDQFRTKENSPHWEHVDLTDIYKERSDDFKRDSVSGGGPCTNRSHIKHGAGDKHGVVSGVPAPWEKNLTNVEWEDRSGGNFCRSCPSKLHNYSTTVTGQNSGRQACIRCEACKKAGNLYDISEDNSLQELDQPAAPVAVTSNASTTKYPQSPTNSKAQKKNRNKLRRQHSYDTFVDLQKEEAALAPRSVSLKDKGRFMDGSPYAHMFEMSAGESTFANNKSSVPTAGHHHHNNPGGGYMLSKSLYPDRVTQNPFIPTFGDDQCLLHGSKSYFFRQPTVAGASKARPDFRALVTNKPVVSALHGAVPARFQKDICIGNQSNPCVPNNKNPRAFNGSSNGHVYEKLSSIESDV
# Procedure: (§1) A total of seven PET scans in two monkeys were acquired. Each monkey underwent one baseline scan with (R)-[^18F]OF-Me-NB1, and two blocking scans at 10 min after the injection of the GluN2B antagonist Co-101,244 (0.25 mg/kg) or the sigma-1 antagonist FTC-146 (0.027 and 0.125 mg/kg). Co-101,244 and FTC-146 were previously used by Cai et al. to determine the in vivo binding specificity and selectivity of a radiotracer from the same scaffold, [^11C]NR2B-SMe, in rodents. In addition, a baseline scan with (S)-[^18F]OF-Me-NB1 was also performed in one monkey. All procedures were approved by the Yale University Institutional Animal Care and Use Committee.
# (§2) Animals were sedated with a combination of alfaxalone (2 mg/kg), midazolam (0.3 mg/kg), and dexmedetomidine (0.01 mg/kg) and maintained in an anesthetized state with 1.5–2.5% isoflurane in oxygen. Heart rate, blood pressure, respiration rate, oxygen saturation, and respiration rate were monitored continuously. An arterial line was placed in the radial artery for blood sampling.
# Dynamic PET data were acquired on the Focus 220 scanner (Siemens Medical Solutions, Knoxville, TN, USA). Before radiotracer injection, a 9 min transmission scan was obtained for attenuation correction. The radiotracer (10 mL) was administered intravenously as a slow bolus over 3 min. Emission data were collected in list mode for 90 or 120 min and binned into frames of increasing durations (6 × 30 s, 3 × 1 min, 2 × 2 min, and […]).
# High-resolution magnetic resonance images were acquired with a Siemens 3 T Trio scanner for the region of interest (ROI) definition. PET emission data were attenuation-corrected using the transmission scan, then reconstructed using a Fourier rebinning and filtered back-projection algorithm. PET images summed from the first 10 min of each scan were registered to the anatomical MR image. Inverted transformations were applied to register an atlas ROI mask to the PET image, and time-activity curves (TACs) were extracted from each ROI: frontal, occipital, temporal, cingulate and insular cortex, caudate, putamen, globus pallidus, nucleus accumbens, amygdala, hippocampus, thalamus, pons, substantia nigra, cerebellum, and centrum semiovale.
# (§3) Kinetic parameters were determined by fitting the regional TACs and metabolite-corrected arterial input functions to the one-tissue compartment (1TC) and two-tissue compartment (2TC) models, as well as the multilinear analysis 1 (MA1) method with starting time of 30 min [28]. The regional volume of distribution (VT, mL/cm^3) was derived in each case.
# [5] = target: T1, GluN2B subunits of the NMDA receptor; test: PET blocking studies and occupancy (Lassen) plot with (R)-[^18F]OF-Me-NB1; format: in vivo, rhesus monkeys (Macaca mulatta); conditions: for VT, cerebellum / VT, cingulate cortex / VT, frontal cortex / VT, hippocampus / VT, semiovale / VT, thalamus: MA1; for Non-displaceable volume of distribution (VND): from occupancy plot with Co101,244 0.25 mg/kg; for Receptor occupancy (occupancy plot): tracer (R)-[^18F]OF-Me-NB1
# Procedure: as §1, §3
# For the blocking studies, occupancy plots were constructed using regional VT values at baseline and differences in VT between baseline and blocking scans. Percent target occupancy across the brain and non-displaceable volume of distribution (VND) was then determined from the resulting linear relationship, where the slope is the uniform receptor occupancy by the drug in the brain [29].
# [6] = target: GluN2B subunit-containing NMDARs; conditions: cited from earlier work
# sigma-1 receptor = conditions: cited from earlier work
# [7] = Vital signs monitoring during PET scans; format: in vivo, rhesus monkeys; conditions: after the injections of blocking drug and tracer for the blocking scan
# Procedure: as §2
# [8] = M1 (male), listed as (R)–[^18F]OF–Me–NB1
# [9] = blocking with Co 101,244 (0.25 mg/kg), M1
# [10] = blocking with Co 101,244 (0.25 mg/kg), M2
# [11] = blocking with FTC-146 (0.027 mg/kg), M1
# [12] = blocking with FTC-146 (0.125 mg/kg), M2
structure (smiles),measurement,setting,value
COc1ccc2c(c1)CCN(CCCCc1ccccc1[18F])C[C@@H]2O [(R)-[^18F]OF-Me-NB1],logD,[1],2.85 ± 0.01
same,Parent fraction of total plasma activity,[2]; 30 min after tracer injection,~ 30%
same,Parent fraction of total plasma activity,[2]; 90 min after tracer injection,20%
same,fraction unbound,[3],0.012 ± 0.002
same,"BPND, cerebellum",[4]; M1 (male),0.4
same,"BPND, cingulate cortex",[4]; M1 (male),1.0
same,"BPND, frontal cortex",[4]; M1 (male),0.68
same,"BPND, hippocampus",[4]; M1 (male),0.73
same,"BPND, semiovale",[4]; M1 (male),0.43
same,"BPND, thalamus",[4]; M1 (male),0.48
same,"BPND, cerebellum",[4]; [8],0.40
same,"BPND, cingulate cortex",[4]; [8],1.01
same,"BPND, cerebellum",[4]; M2 (female),0.43
same,"BPND, cingulate cortex",[4]; M2 (female),0.90
same,"BPND, frontal cortex",[4]; M2 (female),0.60
same,"BPND, hippocampus",[4]; M2 (female),0.60
same,"BPND, semiovale",[4]; M2 (female),0.48
same,"BPND, thalamus",[4]; M2 (female),0.50
same,Peak uptake SUV across brain regions,[4],4.5–6.5
same,Time to peak brain uptake after tracer injection,[4],≤ 20 min
same,"VT, cerebellum",[4]; M1,8.9 mL/cm^3
same,"VT, cingulate cortex",[4]; M1,12.8 mL/cm^3
same,"VT, frontal cortex",[4]; M1,10.7 mL/cm^3
same,"VT, hippocampus",[4]; M1,11.0 mL/cm^3
same,"VT, semiovale",[4]; M1,9.1 mL/cm^3
same,"VT, thalamus",[4]; M1,9.4 mL/cm^3
same,"VT, cerebellum",[4]; M2,9.2 mL/cm^3
same,"VT, cingulate cortex",[4]; M2,12.2 mL/cm^3
same,"VT, frontal cortex",[4]; M2,10.3 mL/cm^3
same,"VT, hippocampus",[4]; M2,10.3 mL/cm^3
same,"VT, semiovale",[4]; M2,9.5 mL/cm^3
same,"VT, thalamus",[4]; M2,9.6 mL/cm^3
same,BPND in most brain regions,[4]; rhesus monkeys,> 0.5
same,"VT, cerebellum",[5]; [9],6.9 mL/cm^3
same,"VT, cingulate cortex",[5]; [9],8.1 mL/cm^3
same,"VT, frontal cortex",[5]; [9],6.8 mL/cm^3
same,"VT, hippocampus",[5]; [9],6.9 mL/cm^3
same,"VT, semiovale",[5]; [9],8.6 mL/cm^3
same,"VT, thalamus",[5]; [9],6.8 mL/cm^3
same,"VT, cerebellum",[5]; [10],7.6 mL/cm^3
same,"VT, cingulate cortex",[5]; [10],7.9 mL/cm^3
same,"VT, frontal cortex",[5]; [10],7.4 mL/cm^3
same,"VT, hippocampus",[5]; [10],7.3 mL/cm^3
same,"VT, semiovale",[5]; [10],8.0 mL/cm^3
same,"VT, thalamus",[5]; [10],6.8 mL/cm^3
same,"VT, cerebellum",[5]; [11],9.3 mL/cm^3
same,"VT, cingulate cortex",[5]; [11],11.6 mL/cm^3
same,"VT, frontal cortex",[5]; [11],9.4 mL/cm^3
same,"VT, hippocampus",[5]; [11],10.5 mL/cm^3
same,"VT, semiovale",[5]; [11],9.5 mL/cm^3
same,"VT, thalamus",[5]; [11],9.4 mL/cm^3
same,"VT, cerebellum",[5]; [12],8.7 mL/cm^3
same,"VT, cingulate cortex",[5]; [12],10.1 mL/cm^3
same,"VT, frontal cortex",[5]; [12],9.2 mL/cm^3
same,"VT, hippocampus",[5]; [12],9.2 mL/cm^3
same,"VT, semiovale",[5]; [12],8.4 mL/cm^3
same,"VT, thalamus",[5]; [12],8.6 mL/cm^3
same,Non-displaceable volume of distribution (VND),[5]; female monkey (monkey 2),6.4 mL/cm^3
same,Non-displaceable volume of distribution (VND),[5]; male monkey (monkey 1),6.36 mL/cm^3 and 6.4 mL/cm^3
same,Ki,"[6]; read-out: Ki, binding affinity to GluN2B",4 nM
same,Ki,sigma-1 receptor,100 nM
COc1ccc2c(c1)CCN(CCCCc1ccccc1[18F])C[C@H]2O [(S)-[^18F]OF-Me-NB1],Parent fraction of total plasma activity,[2]; 30 min after tracer injection,20% and ~ 20%
same,Parent fraction of total plasma activity,[2]; 90 min after tracer injection,~ 10%
same,fraction unbound,[3],0.018
same,Peak uptake SUV across brain regions,[4],3.0–4.5
same,Time to peak brain uptake after tracer injection,[4],≤ 15 min
"Cc1ccc(CC2(O)CCN(CCOc3ccc(O)cc3)CC2)cc1 [Co101,244, reference compound]",Effect of pretreatment on parent fraction of (R)-[^18F]OF-Me-NB1 in plasma,[2],appeared to accelerate the decrease in parent fraction
same,Receptor occupancy (occupancy plot),"[5]; Co101,244 0.25 mg/kg, female monkey (monkey 2)",68%
same,Receptor occupancy (occupancy plot),"[5]; Co101,244 0.25 mg/kg, male monkey (monkey 1)",77%
same,Blood pressure drop,[7],~ 20%
"O=c1sc2cc(CCCF)ccc2n1CCN1CCCCCC1 [FTC-146, reference compound]",Effect of pretreatment on parent fraction of (R)-[^18F]OF-Me-NB1 in plasma,[2],had little effect
same,Receptor occupancy (occupancy plot),"[5]; FTC-146 0.125 mg/kg, female monkey (monkey 2)",33%
same,Blood pressure drop,[7],~ 20%
"CC(C(O)c1ccc(O)cc1)N1CCC(Cc2ccccc2)CC1 (centres unmarked) [Ifenprodil, reference compound]",Ki,"[6]; read-out: Ki, GluN2B subunit-containing NMDARs",10 nM
